Reference: patent publication US6462055B2, “Alpha-methylbenzyl-containing thiourea inhibitors of herpes viruses containing a phenylenediamine group” (Wyeth, priority 1998, dated 2002)
In brackets after ≈: the same amount, converted by molar mass.

Key:
VZV strain Ellen = assay: VZV Antiviral (ELISA) Assay in human foreskin fibroblast cells; format: cell-based, varicella-zoster virus; conditions: for IC50 / inhibition at 10 µg/mL: Human alphaherpesvirus 3, Fibroblast; for IC50: read-out: IC50 (ug/ml) VZV; for inhibition at 10 µg/mL: read-out: % inhibition 10 ug/ml VZV, 10 ug/ml
Procedure: For the generation of stock VZV to be used in the assay, VZV strain Ellen (ATCC #VR-1367) is used to infect human foreskin fibroblast (HFF) cells at low multiplicity (less than 0.1) and incubated overnight at 37° C. in 5% CO2. After the overnight incubation, the mixture of uninfected and VZV-infected HFF infected cells are then harvested and added to each well of 96-well plates (3.5×10^4 cells in 100 μl DMEM supplemented with 2% FBS) which contain test compound or the reference standard drug control (in 100 μl DMEM supplemented with 2% FBS per well). These cells are incubated for three days at 37° C. in 5% CO2, then fixed for ELISA assay. The primary antibody is murine anti-VZV glycoprotein II monoclonal antibody (Applied Biosystems, Inc. #13-145-100) and the secondary antibody is goat anti-mouse IgG linked to β-galactosidase. Thus the extent of viral replication is determined by assessing β-galactosidase activity by quantifying the generation of the 4-methyl umbelliferone fluorescent cleavage product after addition of the methyl umbelliferyl-β-D-galactoside (Sigma #M1633) substrate on a microfluorimeter (365 nm for excitation and 450 nm for emission). Antiviral activity (IC50) of the test compound is determined by comparing the flourescence obtained in absence of compound to that obtained in the presence of compound.

HSV-1 = assay: HSV Antiviral (ELISA) Assay in Vero cells; format: cell-based, herpes simplex virus type 1; conditions: HSV-1, Vero cells; for IC50: Human alphaherpesvirus 1, read-out: IC50 (ug/ml) HSV
Procedure: Vero cells (ATCC #CCL-81) are plated on 96-well tissue culture plates at 3.5×10^4 cells per 100 μl tissue culture DMEM (Dulbeccos modified Eagle media) supplemented with 2% fetal bovine serum (FBS) in each well. After overnight incubation @ 37° C. (in 5% CO2) and 30 minutes prior to infection with HSV-1 (multiplicity of infection equal to 0.006), cells are either untreated, or treated with test compound (multiple concentrations) or reference standard drug control. After approximately 24 hours post-infection incubation @ 37° C. (in 5% CO2), cells are fixed for ELISA assay. The primary antibody is murine anti-HSV glycoprotein D monoclonal primary antibody and the secondary antibody is goat anti-mouse IgG linked to β-galactosidase. Thus the extent of viral replication is determined by assessing β-galactosidase activity by quantifying the generation of the 4-methyl umbelliferone fluorescent cleavage product after addition of the methyl umbelliferyl-β-D-galactoside (Sigma #M1633) substrate on a microfluorimeter (365 nm for excitation and 450 nm for emission). Antiviral activity (IC50) of the test compound is determined by comparing the flourescence obtained in absence of compound to that obtained in the presence of compound.

Row | SMILES | IC50 (VZV strain Ellen) [µg/mL] | inhibition at 10 µg/mL (VZV strain Ellen) [%] | further results
1 | CC(NC(=S)Nc1ccc(NC(=O)c2ccccc2F)cc1)c1cccc(C(F)(F)F)c1 (stereo not drawn) [Example 786] | > 7.5 | – | IC50 (HSV-1): > 10 µg/mL
2 | CC(NC(=S)Nc1ccc(NC(=O)c2ccccc2F)cc1)c1ccc(C(F)(F)F)cc1 (stereo not drawn) [Example 787] | > 7.5 | – | IC50 (HSV-1): > 10 µg/mL
3 | CC(NC(=S)Nc1ccc(NC(=O)c2ccccc2F)cc1)c1cccc(C#N)c1 (stereo not drawn) [Example 791] | 7 (≈ 16.7 µM) | – | IC50 (HSV-1): > 10 µg/mL
4 | CCCOc1ccc(NC(=S)Nc2ccc(NC(=O)c3ccccc3F)cc2)cc1Cl [Example 807] | – | – | IC50 (ug/ml) VZV (VZV strain Ellen): 0.9 µg/mL (≈ 1.97 µM); IC50 (ug/ml) HSV (HSV-1): >10 µg/mL
5 | COc1ccc(NC(=S)Nc2ccc(NC(=O)c3ccccc3F)cc2)cc1I [Example 810] | > 7.5 | – | –
6 | CC(NC(=S)Nc1ccc(NC(=O)c2ccccc2I)cc1)c1ccc(F)cc1 (stereo not drawn) [Example 812] | 3.4 (≈ 6.55 µM) | – | –
7 | COc1ccc(NC(=S)Nc2ccc(NC(=O)c3ccccc3)cc2)cc1Cl [Example 817, N-{4-[3-(3-Chloro-4-methoxy-phenyl)-thioureido]-phenyl}-benzamide] | 12 (≈ 29.1 µM) | 66 | IC50 (HSV-1): 1 µg/mL (≈ 2.43 µM)
8 | COc1ccc(NC(=S)Nc2ccc(NC(=O)c3ccccc3OC)cc2)cc1Cl [Example 818, N-{4-[3-(3-Chloro-4-methoxy-phenyl)-thioureido]-phenyl}-2-methoxy-benzamide] | > 10 | 32 | –
9 | COc1ccc(NC(=S)Nc2ccc(NC(=O)c3cccc(F)c3)cc2)cc1Cl [Example 822, N-{4-[3-(3-Chloro-4-methoxy-phenyl)-thioureido]-phenyl}-3-fluoro-benzamide] | > 10 | 0 | –
10 | COc1ccc(NC(=S)Nc2ccc(NC(=O)c3ccc(F)cc3)cc2)cc1Cl [Example 823, N-{4-[3-(3-Chloro-4-methoxy-phenyl)-thioureido]-phenyl}-4-fluoro-benzamide] | > 10 | 7 | –
11 | COc1cc(OC)c(NC(=S)Nc2ccc(NC(=O)c3ccccc3C)cc2)cc1Br [Example 829, N-{4-[3-(5-Bromo-2,4-dimethoxy-phenyl)-thioureido]-phenyl}-2-methyl-benzamide] | > 15 | 50 | –
12 | CSc1ccc(NC(=S)Nc2ccc(NC(=O)c3c(F)cccc3F)cc2)cc1Cl [Example 848, N-{4-[3-(3-Chloro-4-methylsulfanyl-phenyl)-thioureido]-phenyl}-2,6-difluoro-benzamide] | 1.3 (≈ 2.8 µM) | 101 | –
13 | CC(C)(C)c1cccc(NC(=S)Nc2ccc(NC(=O)c3ccccc3F)cc2)c1 [Example 869, N-{4-[3-(3-tert-Butyl-phenyl)-thioureido]-phenyl}-2-fluoro-benzamide] | 3 (≈ 7.12 µM) | 77 | –
14 | O=C(Nc1ccc(NC(=S)Nc2ccc(C(F)(F)F)c(Cl)c2)cc1)c1ccccc1F [Example 911, N-{4-[3-(3-Chloro-4-trifluoromethyl-phenyl)-thioureido]-phenyl}-2-fluoro-benzamide] | > 10 | 38 | –
15 | O=C(Nc1ccc(NC(=S)Nc2ccc(I)c(Cl)c2)cc1)c1ccccc1F [Example 916, N-{4-[3-(3-Chloro-4-iodo-phenyl)-thioureido]-phenyl}-2-fluoro-benzamide] | > 10 | 30 | –
16 | CC(NC(=S)Nc1ccc(NC(=O)c2ccnc3ccccc23)cc1)c1ccc(F)cc1 (stereo not drawn) [Example 989, Quinoline-4-carboxylic acid (4-{3-[1-(4-fluoro-phenyl)-ethyl]-thioureido}-phenyl)-amide] | 3 (≈ 6.75 µM) | – | –
17 | CC(NC(=S)Nc1ccc(NC(=O)c2ccc3ncccc3c2)cc1)c1ccc(F)cc1 (stereo not drawn) [Example 990, Quinoline-6-carboxylic acid (4-{3-[1-(4-fluoro-phenyl)-ethyl]-thioureido}-phenyl)-amide] | 3.5 (≈ 7.87 µM) | – | –
18 | CC(NC(=S)Nc1ccc(NC(=O)c2ccccc2C#N)cc1)c1ccc(F)cc1 (stereo not drawn) [Example 993, 2-Cyano-N-(4-{3-[1-(4-fluoro-phenyl)-ethyl]-thioureido}-phenyl)-benzamide] | 2.7 (≈ 6.45 µM) | – | –
19 | COc1cc(OCC(F)(F)F)ccc1NC(=S)Nc1ccc(NC(=O)c2ccccc2F)cc1 [Example 1006, 2-Fluoro-N-(4-{3-[2-methoxy-4-(2,2,2-trifluoro-ethoxy)-phenyl]-thioureido}-phenyl)-benzamide] | 11 (≈ 22.3 µM) | – | –
20 | CC(NC(=S)Nc1ccc(NC(=O)c2ccccc2F)cc1)c1ccc(C(F)(F)F)cc1F (stereo not drawn) [Example 1106] | > 7.5 | – | –
21 | C[C@H](NC(=S)Nc1ccc(NC(=O)c2nccc3ccccc23)cc1)c1ccc(Cl)cc1 [Example 1109] | 0.03 (≈ 0.0651 µM) | – | –
22 | CC(NC(=S)Nc1ccc(NC(=O)c2nccc3ccccc23)cc1)c1ccc(F)cc1 (stereo not drawn) [Example 1110] | – | – | IC50 (ug/ml) VZV (VZV strain Ellen): 0.05 µg/mL (≈ 0.112 µM)
